From patent US20110117038A1, “Dopa Oxidase Inhibitor, Skin-Lightening Agent and External Preparation for Skin” (Kao Corporation, priority 2009, published 2011)

Target: T1, dopa oxidase activity (tyrosinase) of human neonatal foreskin-derived melanocytes (Homo sapiens, UniProt P14679)
T1 construct: The cells were lysed for 3 hours at 4° C., and the dopa oxidase activity was measured; endogenous in cells; host or cells: human neonatal foreskin-derived melanocytes (primary), lysed with NP-40/SDS extraction buffer
T1 sequence (P14679 19-529): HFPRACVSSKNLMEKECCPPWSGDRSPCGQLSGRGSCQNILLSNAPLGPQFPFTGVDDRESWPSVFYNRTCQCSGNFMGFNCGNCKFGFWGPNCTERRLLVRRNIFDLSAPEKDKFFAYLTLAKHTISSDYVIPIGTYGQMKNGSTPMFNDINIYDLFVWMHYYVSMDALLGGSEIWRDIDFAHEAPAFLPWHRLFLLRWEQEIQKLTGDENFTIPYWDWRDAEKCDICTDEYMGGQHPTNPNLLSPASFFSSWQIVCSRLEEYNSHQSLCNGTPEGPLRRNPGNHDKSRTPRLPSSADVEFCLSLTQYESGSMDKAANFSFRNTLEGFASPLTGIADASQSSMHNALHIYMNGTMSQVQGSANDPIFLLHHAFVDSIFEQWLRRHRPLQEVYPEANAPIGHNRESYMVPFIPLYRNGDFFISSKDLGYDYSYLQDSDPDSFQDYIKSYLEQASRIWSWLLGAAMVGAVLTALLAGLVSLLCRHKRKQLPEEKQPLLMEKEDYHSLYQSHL
Assay: Measurement of dopa oxidase activity (MBTH method) in lysate of treated melanocytes
Type: cell-based
Conditions: read-out: Dopa oxidase activity (%)
Protocol: 100 μL of human neonatal foreskin-derived melanocytes were inoculated on each well of a 96-well plate to be a cell density of 1×10^4 cells/well. The medium used therein was Medium 254 to which HMGS (Human Melanocyte Growth Supplement) excluding PMA (all manufactured by Cascade Biologics Inc.) was added.
After culturing the cells for 24 hours, endothelin-1 (ET-1) which is a melanocyte activator, stem cell growth factor (SCF), α-melanocyte stimulating hormone (α-MSH), histamine and prostaglandin E2 (PGE2) were mixed and added to the each culture at a final concentration in medium of 10×10^−7 mol/m^3 in each. […]
The melanocytes which had been used in the measurement of the cell proliferation activity were washed with Phosphate-buffered saline (PBS) from which Ca^2+ and Mg^2+ had been eliminated, and 20 μL/well of an extraction buffer (0.1 M Tris-HCl (pH 7.2), 1% Nonidet P-40, 0.01% SDS, 100 μM phenylmethylsulfonyl fluoride (PMSF) and 1 μg/ml aprotinin) and 20 μL/well of an assay buffer (100 mM Sodium phosphate-buffer (pH 7.1) containing 4% dimethylformamide) were added to the cells. The cells were lysed for 3 hours at 4° C., and its dopa oxidase activity was measured. […]
Further, the values of the dopa oxidase activity are indicated as values relative to the absorbances of the instances where various plant extracts were not added. […]

CC(=O)O[C@@H]1C[C@H](O)[C@@]23CO[C@@H](O)[C@]1(C)[C@@H]2C[C@@H](O)[C@]1(C)[C@@H]3C(=O)[C@H](OC(C)=O)[C@@]2(C)[C@H](c3ccoc3)C[C@H]3O[C@]321 [Toosendanin]
activity at 0.1 µM: 15%
